The values below come from patent US20050101530A1, “Cellular virus receptors and methods of use” (Topigen Pharmaceutique, Inc., priority 2001, published 2005).

Assay [1] has as its system RSV A2. The experiment in a line: RSV plaque formation (infectivity) inhibition test in Hep-2 cell cultures. Format: cell-based, respiratory syncytial virus (RSV) A2 strain. Conditions: Hep-2 cells. As to the method:
The A2 strain of RSV was purchased from ATCC. The RSV was inoculated into a sub-confluent Hep-2 cell monolayer. […] The contents of the flask was resuspended in 1 ml aliquots, quick-frozen with alcohol/dry ice, and stored at −80° C. The virus titer of RSV was assessed by quantitative plaque forming assay and maintained titers in the range of 10^6 to 10^8pfu/ml for more than 6 months at −70° C.
Hep2 cells are known for being a permissive target cell for RSV infection and these cells express several chemokine receptors. Serial rounds of infections were performed with Hep-2 cells at different MOIs, ranging from 1:5 to 1:0.1. Hep-2 cells were systematically infected at these ranges of MOI. Subsequent experimental infection of Hep-2 cells with RSV were realized at a MOI 1:0.1. We investigated the role of the chemokine receptor CCR3 in supporting RSV infection. Immunoprecipitation technique followed by analysis of the immunoprecipitated complexes by SDS-PAGE were performed in order to gain insight into the physical contact between the RSV-G protein and the CCR3 receptor. Immunoprecipitation of the immune complexes will allow to assess, using SDS-PAGE and a specific antibody for the RSV-G protein, whether or not the contact of the virus glycoprotein with the cell receptor occurred. […] We noticed here that although the monoclonal antibody to RSV-G protein was diluted to 1:5000, it still cross reacted with a determinant of 43-45 kDa in all non infected or control cell types used in this work (see FIG. 1 lane 2). However, keeping in mind that all cell extracts were normalized to the same quantity of proteins before being loaded into SDS-PAGE. Therefore, the high intensity of the band, recognized by anti-RSV-G, and corresponding to the RSV-G protein precursor allowed us to differentiate between real infection and the background due to cross reactivity. We assessed if the CCR3 receptor was involved in virus infectivity of epithelial cells by performing RSV infectivity inhibition tests as described above. […]

For assay [2], the target named is T1, RSV-G protein and CCR3 receptor (Homo sapiens, UniProt P51677).
T1 construct: physical contact between the CCR3 receptor and the RSV-G protein in Hep-2 cells; endogenous in cells; host or cells: Hep-2 epithelial cells (ATCC) infected with RSV A2 (ATCC)
T1 sequence (P51677 1-355): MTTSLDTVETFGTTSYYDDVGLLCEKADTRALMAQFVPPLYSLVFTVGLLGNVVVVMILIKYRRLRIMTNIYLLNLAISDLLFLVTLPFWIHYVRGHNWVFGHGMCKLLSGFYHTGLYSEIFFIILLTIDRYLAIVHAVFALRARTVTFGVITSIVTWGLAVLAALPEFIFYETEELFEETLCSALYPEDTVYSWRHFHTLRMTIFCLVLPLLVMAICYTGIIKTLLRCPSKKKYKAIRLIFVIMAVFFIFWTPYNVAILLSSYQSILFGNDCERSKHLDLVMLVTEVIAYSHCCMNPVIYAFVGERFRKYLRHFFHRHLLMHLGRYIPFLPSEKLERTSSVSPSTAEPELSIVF
In words: Anti-CCR3 immunoprecipitation and anti-RSV-G Western blot of RSV-infected Hep2 cells. Format: cell-based. Conditions: Hep2 cells infected by RSV in the presence of 2 μg/ml of Eotaxin; FIG. 1 lane 3. Here is the method: (§1) A549, Hep2, or GHOST cells were infected by RSV A2 strain at different multiplicity of infection (MOI). The results presented in this work were performed at a MOI of 1:0.1. The MOI 1:0.1 is the cut off of permissive and restrictive infection. The cells expressing the chemokine receptor CCR3 (Ghost-CCR3+, Hep2 and A549) were found permissive at a MOI 1:0.1 and the chemokine receptor CCR3 is considered as the high affinity coreceptor for RSV infection. Infection experiments undertaken with GHOST cells expressing only one of the following chemokine receptors the CCR1, CCR2b, CCR4, CCR5, CCR8 or CXCR4, were performed at a MOI of 1:2. These GHOST cells (CCR1, CCR-2b, CCR-4, CCR-5, CCR-8 and CXCR4), were not infected at a MOls of 1:0.1 and 1:1. The chemokine receptors CCR1, CCR2, CCR4, CCR5, CCR8 were considered subsequently as low affinity coreceptors in regard to RSV infection. […] These cells were not infected by RSV at a MOI 1:5 and lesser (1:4, 1:3, 1:2, 1:1 and 1:0.1).
Cells were infected by RSV for 2 hr incubation in the presence or the absence of 2 μg/ml of Eotaxin, or of PBS solution and cultured for 3 days. […]
Hep2 cells are known for being a permissive target cell for RSV infection and these cells express several chemokine receptors. […] However, keeping in mind that all cell extracts were normalized to the same quantity of proteins before being loaded into SDS-PAGE. […]
On the technique in general: Immunoblotting shows a protein as a band on a membrane.

The test system of assay [3] is RSV. The experiment in a line: RSV infection of CCR3 transfected GHOST cells, immunostaining. Conditions: Eotaxin 1 μg/ml, anti-RSV F-protein immunostaining, FIG. 3B. It is filed as cell-based, respiratory syncytial virus (RSV) A2 strain. As to the method: as §1
We have also assessed whether CCR3 transfected GHOST cells support RSV infection and produce infectious virus. We performed this by using the same methods as described in FIG. 3. […]
After fixing the cells in 4% paraformaldehyde in phosphate buffered saline (PBS), the presence of virus was detected by immunostaining. […]

The target of assay [4] is human chemokine receptor CCR3 (human) (UniProt P51677). In words: cell-based or functional assay.

Consider Eotaxin, for which the “percent inhibition of virus plaques formation” value in assay [1] (Eotaxin greater or equal to 0.5 μg/ml, compared to PBS-treated cultures, three days post infection) worked out at 80%. In addition, the “RSV plaques as compared with PBS controls” value in assay [1] (each concentration of Eotaxin tested (0.01 to 1.0 μg/ml), p<0.05, Student's t-test) is “statistically fewer RSV plaques”. In addition, in assay [1] (eotaxin added to culture medium, during virus adsorption), the “timing of inhibition of RSV infection (FIG. 2)” value is listed as “inhibited RSV infection most effectively early in infection”. In addition, in assay [2], the “detection of RSV-G protein by RSV-G mAb in anti-CCR3 immunoprecipitated extracts” value is given as “failed to recognize the RSV-G protein”. Further, the “RSV infection of GHOST/CCR3 cells by immunostaining” value in assay [3] is reported as “inhibits infection by RSV”; in assay [3] (listed as eotaxin), “inhibits cellular infection by RSV”.

Turning to “Eotaxin (from UniProt P51671 24-97) (ligand)”, the percent inhibition of virus plaques formation (RSV A2 on Hep-2 cells) in assay [4] amounted to 80%.

“Rat anti-human CCR3 (clone 61828.111) (antibody)” registered a decrease in RSV infection of CCR3+ GHOST cells, immunostaining in assay [4] of 80%.
